Like-named read-outs stand apart in the source and are kept apart here.
Columns and labels:
[1] = GC-head space: effect of enablers on the encapsulation of menthol by PVP; assay type: physicochemical; conditions: for ability of enabler to encapsulate menthol: GC-Head space against control; for ability of enabler to encapsulate menthol / GC-HS area Menthol: with PVP; for GC-HS area (% of control sample): menthol, control without PVP
[2] = GC-head space: effect of enablers on the encapsulation of menthol and limonene combination by PVP; assay type: physicochemical; conditions: for GC-HS area (% of control sample) Limonene / GC-HS area (% of control sample) Menthol / GC-HS area Limonene / GC-HS area Menthol: menthol + limonene with PVP
[3] = UV-vis spectroscopy of enabler interaction with PVP (absorbance at 236 nm); assay type: physicochemical
[4] = cited from earlier work
[5] = GC head space of benefit agents in the presence of PVP and BHT; assay type: physicochemical

Row | Compound | GC-HS area Menthol ([1]; enabler concentration 0.05%) | GC-HS area Menthol ([1]; enabler concentration 0.1%) | GC-HS area (% of control sample) ([1]; enabler 0.05%) | GC-HS area (% of control sample) ([1]; enabler 0.1%) | GC-HS area (% of control sample) Limonene ([2]; enabler 0.05%) | GC-HS area (% of control sample) Menthol ([2]; enabler 0.05%) | GC-HS area Limonene ([2]; enabler 0.05%) | GC-HS area Menthol ([2]; enabler 0.05%) | GC-HS area (% of control sample) Limonene ([2]; enabler 0.1%) | GC-HS area (% of control sample) Menthol ([2]; enabler 0.1%) | GC-HS area Limonene ([2]; enabler 0.1%) | GC-HS area Menthol ([2]; enabler 0.1%) | GC-HS area (% of control sample) Limonene ([2]; enabler 0.5%) | GC-HS area (% of control sample) Menthol ([2]; enabler 0.5%) | GC-HS area Limonene ([2]; enabler 0.5%) | GC-HS area Menthol ([2]; enabler 0.5%) | LogP value [4] | further results
1 | CC(=O)O [Acetic acid] | 708 | 1030 | 0.94 % of control sample | 1.37 % of control sample | 91.77 % of control sample | 0.50 % of control sample | 1860568 | 105 | 112.66 % of control sample | 0.82 % of control sample | 2096101 | 174 | 97.95 % of control sample | 1.89 % of control sample | 2053175 | 399 | – | ability of enabler to encapsulate menthol [1]: effectively encapsulate menthol; GC-HS area Menthol ([1]; enabler concentration 0.5%): 925; GC-HS area (% of control sample) ([1]; enabler 0.5%): 1.23 % of control sample
2 | CC(C)=O [Acetone] | 541 | 179 | 0.72 % of control sample | 0.24 % of control sample | 88.91 % of control sample | 1.04 % of control sample | 1825472 | 220 | 103.37 % of control sample | 1.74 % of control sample | 1886916 | 369 | 106.24 % of control sample | 4.21 % of control sample | 2004605 | 891 | – | ability of enabler to encapsulate menthol [1]: effectively encapsulate menthol; GC-HS area Menthol ([1]; enabler concentration 0.5%): 199; GC-HS area (% of control sample) ([1]; enabler 0.5%): 0.27 % of control sample
3 | Cc1cc(C(C)(C)C)c(O)c(C(C)(C)C)c1 [BHT, Butylated hydroxy toluene] | 10608 | 10773 | 14.14 % of control sample | 14.36 % of control sample | 108.95 % of control sample | 23.30 % of control sample | 1813235 | 4929 | 102.91 % of control sample | 30.48 % of control sample | 1866057 | 6449 | 108.30 % of control sample | 58.28 % of control sample | 2020945 | 12330 | – | Absorbance ([3]; 236 nm, enabler 10 ppm with PVP in 95% v/v ethanol): 0.155; interaction of enabler with PVP ([3]; UV-vis, 10 ppm): comparatively lower activities; GC-HS area Menthol ([1]; enabler concentration 0.5%): 8798; GC-HS area (% of control sample) ([1]; enabler 0.5%): 11.73 % of control sample
4 | CCCCCCCCCCCCCCCCO [Cetyl alcohol, reference compound] | – | – | – | – | – | – | – | – | – | – | – | – | – | – | – | – | 7.25 | interaction of the enabler with the polymer ([3]; UV-vis, concentration not given): No interaction
5 | CCCCCCCCCCCCN [Dodecyl amine] | – | – | – | – | – | – | – | – | – | – | – | – | – | – | – | – | 4.76 | –
6 | CC1CCC(C(C)C)C(O)C1 (stereo not shown) [Menthol] | – | – | – | – | – | – | – | – | – | – | – | – | – | – | – | – | – | selectivity of encapsulation in menthol and limonene combination ([2]; PVP with enablers): preferentially encapsulated as against limonene
7 | CCCCC(CC)COC(=O)C=Cc1ccc(OC)cc1 (stereo not shown) [Octyl methoxy cinnamate] | – | – | – | – | – | – | – | – | – | – | – | – | – | – | – | – | 5.8 | –
8 | Oc1cc(Cl)ccc1Oc1ccc(Cl)cc1Cl [Triclosan] | 4977 | 3482 | 6.63 % of control sample | 4.64 % of control sample | 95.29 % of control sample | 3.59 % of control sample | 1925700 | 759 | 99.50 % of control sample | 1.30 % of control sample | 1916012 | 274 | 105.82 % of control sample | 3.98 % of control sample | 2027488 | 841 | – | Absorbance [3]: 0.961; interaction of enabler with PVP [3]: stronger interaction with PVP; ability of enabler to encapsulate menthol [1]: effectively encapsulate menthol; GC-HS area Menthol ([1]; enabler concentration 0.3%): 6103; GC-HS area (% of control sample) ([1]; enabler 0.3%): 8.14 % of control sample
9 | CCCCCCCCCCN [decyl amine] | – | – | – | – | – | – | – | – | – | – | – | – | – | – | – | – | 1.92 | –
10 | CCCCCCCCCCCC(=O)OC [methyl laurate] | – | – | – | – | – | – | – | – | – | – | – | – | – | – | – | – | 5.41 | –
11 | CC1=CCC2CC1C2(C)C (stereo not drawn) [α-Pinene] | – | – | – | – | – | – | – | – | – | – | – | – | – | – | – | – | 4.83 | encapsulation by PVP in the presence of BHT as enabler [5]: not encapsulated
